According to patent US7169592B2, “Producing optically active amino compounds” (Kaneka Corporation, priority 1997, dated 2007):
Several values for one entry are separate records, joined by “and”; a condition that tells them apart may be missing. Equal entries are not always repeated. Where two headings read alike, the source gives them in different places. Marks after values point to notes of the source that are not given here.

Legend:
[1] = molecular target: T1, ω-amino acid transaminase (Pseudomonas putida, UniProt P28269); settings: purified enzyme, literature; pyruvic acid as amino group acceptor; cited from earlier work
T1 sequence (P28269 1-449): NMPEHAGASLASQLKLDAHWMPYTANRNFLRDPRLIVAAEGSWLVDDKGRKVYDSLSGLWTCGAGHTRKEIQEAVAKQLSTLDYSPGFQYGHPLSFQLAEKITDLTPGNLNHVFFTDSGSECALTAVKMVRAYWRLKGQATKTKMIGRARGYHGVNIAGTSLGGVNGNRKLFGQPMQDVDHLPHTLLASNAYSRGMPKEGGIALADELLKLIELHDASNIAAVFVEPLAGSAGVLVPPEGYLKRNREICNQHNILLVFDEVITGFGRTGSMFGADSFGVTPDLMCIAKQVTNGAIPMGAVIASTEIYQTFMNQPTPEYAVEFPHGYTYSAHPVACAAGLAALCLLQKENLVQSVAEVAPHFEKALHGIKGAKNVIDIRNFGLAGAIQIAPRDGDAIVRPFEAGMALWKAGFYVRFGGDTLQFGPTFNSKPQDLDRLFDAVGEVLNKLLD

[2] = system: benzylamine transaminase of Okada et al.; settings: cited from earlier work; for Substrate Specificity, relative activity: purified enzyme, laid-open patent publication, pyruvic acid as amino group acceptor
[3] = system: transaminase (intracellular enzyme); test: Activity of the transaminase (intracellular enzyme) on typical substrates of ω-aminotransferases; format: biochemical, Arthrobacter sp. KNK168
[4] = system: Transaminase of Present Invention (purified enzyme); test: Reactivity of purified transaminase to amino compounds (amino group donors) with pyruvic acid as acceptor; format: biochemical, Arthrobacter sp. KNK168; design: Substrate Specificity, relative activity: concentration or dose not given beside the values; settings: for Substrate Specificity, relative activity: purified enzyme, pyruvic acid as amino group acceptor; for Relative Activity: amino compound 40 mM in substrate solution, pyruvic acid acceptor, pH 8.3, 30° C., 1 hour, (R)-1-phenylethylamine = 100
From the text: (§1) The differences with the ω-amino acid transaminase derived from Pseudomonas sp. F-1 (Agric. Biol. Chem., 42, 2363–2367 (1978), Agric. Biol. Chem., 43, 1043–1048 (1979), J. Biol. Chem., 258, 2260–2265 (1983)) which have been well studied among the ω-amino acid transaminases, and with the benzylamine transaminase of Okada et al. (Japanese Patent Laid-Open No. Hei 6-178685) are summarized and shown in Table 2. In a case of the transaminase reaction in the present invention, the data of the purified enzyme are used, and in cases of those by other two enzymes, the data of the purified enzymes which are disclosed in each of the literature publication and laid-open patent publication are used. Pyruvic acid is used as an amino group acceptor in all cases.
Using the purified enzyme protein obtained in Example 9, reactivities to various amino compounds when using pyruvic acid as an amino acceptor were evaluated. A 150 μl solution of the purified enzyme protein solution diluted ten-folds was added to a 150 μl substrate solution [0.1 M potassium phosphate buffer (pH 8.3), 40 mM pyruvic acid, 0.1 mM pyridoxal phosphate, and 40 mM various amino compounds]. The components were reacted at 30° C. for 1 hour. The reaction tube was transferred into boiling water to stop the reaction, and thereafter, a part of the reaction mixture was diluted five-folds. Ten μl 0.1 M boric acid buffer (pH 8.0) and a 20 μl ethanol solution of 80 mM 4-fluoro-7-nitro-2,1,3-benzoxadiazole (NBD-F) were added to the 10 μl above-mentioned diluted reaction mixture. The resulting mixture was reacted at 60° C. for 1 minute, and thereafter, the resulting mixture was ice-cooled, and 460 μl 5 mM HCl was added thereto. This reaction mixture was analyzed by high-performance liquid chromatography using a fine pack C18-5 column (manufactured by Nippon Bunko) I and using 0.1 M potassium phosphate buffer (pH 6.5) and CH3CN (90:10) as an eluent to detect formation of NBD-Alanine with an excitation wavelength of 470 nm and a detection wave of […]. The results thereof are shown in Table 8 in terms of relative activity in the case of using […] as a substrate.

[5] = system: benzylamine transaminase of Okada et al.; settings: without addition = 100, cited from earlier work
[6] = system: Transaminase of Present Invention (purified enzyme); test: Influence of reaction inhibitors on purified transaminase; format: biochemical, Arthrobacter sp. KNK168; settings: for Relative activity with inhibitor: inhibitor 1 mM, without addition = 100
From the text: as §1

[7] = system: Arthrobacter species KNK168 strain; test: Inducer added during culture; (R)-DMA formation by the separated cells; format: cell-based; settings: substance added to medium as inducer; reaction 30° C., 20 hours, 1% 1-(3,4-dimethoxyphenyl)-2-propanone, 1% (RS)-1-methylpropylamine
Method: When culturing the Arthrobacter species KNK168 strain by the method described in Example 1, (RS)-1-methylpropylamine, (RS)-1-methylbutylamine, (RS)-3-amino-2,2-dimethylbutane, (RS)-2-amino-1-butanol, or (RS)-1-phenylethylamine was added to the medium in place of (R)-1-(3,4-dimethoxyphenyl)-2-aminopropane ((R)-DMA). The cells were separated from the culture, and the reaction was carried out at 30° C. for 20 hours using the above cells in a reaction mixture containing 1% 1-(3,4-dimethoxyphenyl)-2-propanone and 1% (RS)-1-methylpropylamine.

[8] = system: Arthrobacter species KNK168 strain; test: Amino group donors in whole-cell transamination of 1-(3,4-dimethoxyphenyl)-2-propanone; format: cell-based; settings: for (R)-DMA Formed: 1% amino group donor, 1% 1-(3,4-dimethoxyphenyl)-2-propanone, 0.1% Triton X-100, pH 8.5, 35° C., 20 hours; for Function as amino group donor (in words): whole cells
Method: The cultured cells were harvested by centrifugation, and the harvested cells were suspended in a reaction mixture (pH 8.5) containing 1% 1-(3,4-dimethoxyphenyl)-2-propanone, 0.1% Triton X-100, and 1% an amino group donor shown in Table 5. The mixture was reacted at 35° C. for 20 hours.

[9] = system: Transaminase of Present Invention; test: Usability as amino group donor, transaminase of present invention; format: biochemical, Arthrobacter
From the text: Further, the transaminase derived from Arthrobacter which can be used in the present invention is different from the above-mentioned enzyme derived from Brevibacterium in many other aspects.

[10] = molecular target: T1, ω-amino acid transaminase; settings: inhibitor 1 mM; without addition = 100; cited from earlier work
[11] = amino group acceptor 2-ketoglutaric acid, (R)-1-phenylethylamine/pyruvic acid = 100 (control)

NCCCCN [Putrescine]
Substrate Specificity, relative activity [1]: 55%
Substrate Specificity, relative activity [2]: 0%
Relative Activity [3, 11]: 0%
Action of the transaminase on the substance (in words) [4]: does not act on
Substrate Specificity, relative activity [4]: 0%

CC(C)(S)[C@@H](N)C(=O)O [D-Penicillamine]
Relative activity with inhibitor ([5]; inhibitor 1 mM): 0%
Relative activity with inhibitor [6]: 93%

NCCCC(=O)O [4-Aminobutyric acid]
Substrate Specificity, relative activity [1]: 40%
Relative Activity [3, 11]: 0%
Action of the transaminase on the substance (in words) [4]: does not act on
Substrate Specificity, relative activity [4]: 0%

CCC(C)N (racemic) [(RS)-1-Methylpropylamine]
(R)-DMA Formed [7]: 22.3%
(R)-DMA Formed [8]: 28.2%
Function as amino group donor (in words) [8]: functioned as amino group donors

COc1ccc(C[C@@H](C)N)cc1OC [(R)-DMA, (R)-1-(3,4-dimethoxyphenyl)-2-aminopropane]
Relative Activity [4]: 30%
(R)-DMA Formed [7]: 0.9%

NNc1ccccc1 [Phenylhydrazine]
Relative activity with inhibitor ([5]; inhibitor 1 mM): 27%
Influence of reaction inhibitor on the transaminase (in words) [6]: affected only a little
Relative activity with inhibitor [6]: 82%

CCCCN [n-Butylamine]
Substrate Specificity, relative activity [1]: 60%
Substrate Specificity, relative activity [2]: 0%
Action of the transaminase on the substance (in words) [4]: does not act on
Substrate Specificity, relative activity [4]: 0%

N[C@@H](CC(=O)O)C(=O)O [aspartic acid]
Amino Group Donor (usable or not) [9]: cannot be used as an amino group donor

NCCc1ccccc1 [β-Phenethylamine]
Substrate Specificity, relative activity [1]: 54%
Substrate Specificity, relative activity [2]: 9%
Substrate Specificity, relative activity [4]: 0%

NCCC(=O)O [β-Alanine]
Substrate Specificity, relative activity [1]: 100* %
Substrate Specificity, relative activity [2]: 0* %
Activity on the substance as amino group donor (in words) [3]: does not act on
Relative Activity ([3]; amino group acceptor pyruvic acid, (R)-1-phenylethylamine = 100 (control)): 0%
Action of the transaminase on the substance (in words) [4]: does not act on
Substrate Specificity, relative activity [4]: 0* %

CC(N)C(C)(C)C (racemic) [(RS)-3-Amino-2,2-dimethylbutane]
(R)-DMA Formed [7]: 18.6%

CC(N)c1ccccc1 (racemic) [(RS)-1-Phenylethylamine]
(R)-DMA Formed [7]: 8.0%
(R)-DMA Formed [8]: 61.3%
Function as amino group donor (in words) [8]: functioned as amino group donors

N[C@@H](CCC(=O)O)C(=O)O [glutamic acid]
Amino Group Donor (usable or not) [9]: cannot be used as an amino group donor

NCc1ccccc1 [Benzylamine]
Substrate Specificity, relative activity [1]: 45%
Action of benzylamine transaminase on the substance (in words) ([2]; in the presence of pyruvic acid): strongly acts on
Substrate Specificity, relative activity [2]: 100%
Relative Activity [4]: 0.8%
Substrate Specificity, relative activity [4]: 0.8%

O=S(=O)([O-])[O-].[Cu+2] [CuSO4]
Relative activity with inhibitor ([5]; inhibitor 0.5 mM): 5%
Relative activity with inhibitor [6]: 44%

CCCC(C)N (racemic) [(RS)-1-Methylbutylamine]
(R)-DMA Formed [7]: 13.0%
(R)-DMA Formed [8]: 54.7% and 56.9%
Function as amino group donor (in words) [8]: functioned as amino group donors

CCC(N)CO (racemic) [(RS)-2-Amino-1-butanol]
(R)-DMA Formed [7]: 12.9%

O=C(O)c1cc[c]([Hg][Cl])cc1 [p-Chloromercuribenzoic acid]
Relative activity with inhibitor [10]: 100%
Relative activity with inhibitor ([5]; inhibitor 0.1 mM): 9%
Relative activity with inhibitor [6]: 53%

Cl.N [ammonium chloride]
Amino Group Donor (usable or not) [9]: cannot be used as an amino group donor

NO [Hydroxylamine]
Relative activity with inhibitor [10]: 0%
Relative activity with inhibitor ([5]; inhibitor 0.1 mM): 30%
Influence of reaction inhibitor on the transaminase (in words) [6]: affected only a little
Relative activity with inhibitor [6]: 17%
